Experimental data published in US8569336B2, “Compounds for the treatment of inflammatory disorders” (priority 2008, dated 2013).
Like-named read-outs stand apart in the source and are kept apart here.

Key:
[1] = biological target: T1, purified catalytic domain of recombinant human TACE (rhTACEc) (Homo sapiens, UniProt P78536, N452Q/S266A); assay: TACE kinetic assay: cleavage of internally quenched peptide substrate TNF-FRET 2 (Ki); assay type: biochemical; details: TNF-FRET 2 substrate
T1 construct: 6xHis (C); made in house; host or cells: baculovirus/Hi5 insect cells
T1 sequence (P78536 215-477 S266A/N452Q): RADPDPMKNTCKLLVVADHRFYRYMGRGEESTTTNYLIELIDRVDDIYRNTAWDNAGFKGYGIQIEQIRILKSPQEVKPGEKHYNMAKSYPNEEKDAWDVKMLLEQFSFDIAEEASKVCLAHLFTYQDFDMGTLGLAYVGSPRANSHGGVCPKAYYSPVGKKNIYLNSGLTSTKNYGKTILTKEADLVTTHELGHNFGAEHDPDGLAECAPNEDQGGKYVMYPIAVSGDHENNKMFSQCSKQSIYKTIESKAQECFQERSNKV

[2] = test system: TNF-α production from human whole blood; assay: Inhibition of TNF-α production from human whole blood (hWBA), LPS stimulated, ELISA; assay type: cell-based; details: Homo sapiens, TNF-α by ELISA, read-out: hWBA (IC50)
[3] = human whole blood diluted 1:1, LPS stimulated
[4] = LPS-stimulated human whole blood
[5] = 3.5 h, human whole blood diluted 1:1, LPS stimulated, 3.5 h

Row | Ki ([1]; read-out: Ki) [nM] | IC50 [2, 3] [nM] | IC50 [2, 4] [nM] | IC50 [2, 5] [nM] | SMILES | Ki ([1]; Ki) [nM]
1 | 0.568 | 1420 |  |  | COc1ccc2c(c1)C(=O)N(C[C@@]1(c3cc4c(C(F)(F)F)nc(N)nc4o3)NC(=O)NC1=O)C2 [Compound 2305] | 
2 | 4.23 |  | 1830 |  | COc1ccc2c(c1)C(=O)N(C[C@@]1(c3cn4c5c(sc4n3)CN(C)CC5)NC(=O)NC1=O)C2 [Compound 503] | 
3 | 1.44 |  |  | 388 | CNC1CCN(c2ccc3oc([C@]4(CN5Cc6ccc(OC)cc6C5=O)NC(=O)NC4=O)cc3n2)CC1 [Compound 2139] | 
4 | 0.62 |  |  | 1400 | COc1ccc2c(c1)C(=O)N(C[C@@]1(c3cc4nc(Nc5nccs5)ccc4o3)NC(=O)NC1=O)C2 [Compound 2113] | 
5 | 0.355 |  |  | 347 | COc1ccc2c(c1)C(=O)N(C[C@@]1(c3cc4cc(-c5nnc[nH]5)ccc4o3)NC(=O)NC1=O)C2 [Compound 2184] | 
6 | 0.343 |  |  | 1650 | COc1ccc2c(c1)C(=O)N(C[C@@]1(c3cc4cc(CNc5ccccn5)ccc4o3)NC(=O)NC1=O)C2 [Compound 2181] | 
7 | 1.41 | 3480 |  |  | COc1ccc2c(c1)C(=O)N(C[C@@]1(c3ccc(C#N)cc3)NC(=O)NC1=O)C2 [Compound 2477] | 
8 | 0.5 |  | 2920 |  | COc1ccc2c(c1)C(=O)N(C[C@@]1(c3cc4nc(-c5cnc(OC)nc5OC)ccc4o3)NC(=O)NC1=O)C2 [Compound 1509] | 
9 | 0.267 |  |  | 1040 | COc1ccc2c(c1)C(=O)N(C[C@@]1(c3cc4cc(CN(C)C)ccc4o3)NC(=O)NC1=O)C2 [Compound 2176] | 
10 | 0.731 |  |  | 382 | COc1ccc2c(c1)C(=O)N(C[C@@]1(c3cc4nc(N5C(=O)CC[C@@H]5CO)ccc4o3)NC(=O)NC1=O)C2 [Compound 2157] | 
11 | 0.52 | 282 |  |  | COc1ccc2c(c1F)C(=O)N(C[C@@]1(c3cc4cc5c(c(F)c4o3)CNC5=O)NC(=O)NC1=O)C2 [Compound 2500] | 
12 | 0.822 | ≥ 1000 |  |  | COc1ccc2c(c1)C(=O)N(C[C@@]1(c3cc4cnc(NC5CC5)nc4o3)NC(=O)NC1=O)C2 [Compound 2297] | 
13 | 0.62 |  | 183 |  | COc1ccc2c(c1F)C(=O)N(C[C@@]1(c3cc4nc(N(c5cn[nH]c5)C5CCN(C)CC5)ccc4o3)NC(=O)NC1=O)C2 [Compound 1717] | 
14 | 0.444 |  | 536 |  | COc1ccc2c(c1F)C(=O)N(C[C@@]1(c3ccc(-c4cccnc4)o3)NC(=O)NC1=O)C2 [Compound 314] | 
15 | 0.5 | 256 |  |  | COc1ccc2c(c1)C(=O)N(C[C@@]1(c3cc4cc(C(=O)NO)ccc4o3)NC(=O)NC1=O)C2 [Compound 2402] | 
16 | 0.48 |  | 299 |  | COc1ccc2c(c1F)C(=O)N(C[C@@]1(c3cc4nc(-c5ccnc(N6CCN(C(=O)C(F)(F)F)CC6)c5)ccc4o3)NC(=O)NC1=O)C2 [Compound 1718] | 
17 | 1.14 | 348 |  |  | COc1ccc2c(c1)C(=O)N(C[C@@]1(c3cc4ccc(C(=O)NCC5CCN(C)CC5)cc4o3)NC(=O)NC1=O)C2 [Compound 2411] | 
18 | 0.56 | 891 |  |  | COc1ccc2c(c1)C(=O)N(C[C@@]1(c3cc4ccc(C(=O)NC[C@@H](C)O)cc4o3)NC(=O)NC1=O)C2 [Compound 2416] | 
19 | 1.39 |  | 2950 |  | COc1ccc2c(c1)C(=O)N(C[C@@]1(c3cc4nc(-c5cc(O)cc(-c6ccncc6)c5)ccc4o3)NC(=O)NC1=O)C2 [Compound 1308] | 
20 | 0.604 |  |  | 859 | COc1ccc2c(c1F)C(=O)N(C[C@@]1(c3cc4cnc(Cl)cc4o3)NC(=O)NC1=O)C2 [Compound 2217] | 
21 | 0.3 |  | 169 |  | COc1ccc2c(c1F)C(=O)N(C[C@@]1(c3cc4nc(N5CC[C@@H](O)C5)ccc4o3)NC(=O)NC1=O)C2 [Compound 1521] | 
22 | 0.51 | 992 |  |  | COc1ccc2c(c1)C(=O)N(C[C@@]1(c3cc4cc(C(N)=O)c(C)cc4o3)NC(=O)NC1=O)C2 [Compound 2425] | 
23 | 0.37 |  | 542 |  | COc1ccc2c(c1)C(=O)N(C[C@@]1(c3cc4[nH]c(=O)ccc4o3)NC(=O)NC1=O)C2 [Compound 1946] | 
24 | 0.263 |  |  | 102 | COc1ccc2c(c1F)C(=O)N(C[C@@]1(c3cc4nc(-c5cn[nH]c5)ccc4o3)NC(=O)NC1=O)C2 [Compound 2121] | 

Row | Ki ([1]; read-out: Ki) [nM] | IC50 [2, 3] [nM] | IC50 [2, 4] [nM] | IC50 [2, 5] [nM] | SMILES | Ki ([1]; Ki) [nM]
25 | 0.6 | 300 |  |  | COCCNC(=O)c1ccc2cc([C@]3(CN4Cc5ccc(OC)cc5C4=O)NC(=O)NC3=O)oc2c1 [Compound 2413] | 
26 | 1.01 | 1090 |  |  | COc1ccc2c(c1)C(=O)N(C[C@@]1(c3cc4ccc(C(=O)N5CCN(C)CC5)cc4o3)NC(=O)NC1=O)C2 [Compound 2423] | 
27 | 0.79 | 332 |  |  | CCN(CC)CCNC(=O)c1ccc2cc([C@]3(CN4Cc5ccc(OC)cc5C4=O)NC(=O)NC3=O)oc2c1 [Compound 2419] | 
28 | 0.721 | 696 |  |  | COc1ccc2c(c1)C(=O)N(C[C@@]1(c3cc4cnc(-c5c(C)noc5C)cc4o3)NC(=O)NC1=O)C2 [Compound 2288] | 
29 | 0.8 |  | 3660 |  | COc1ccc2c(c1)C(=O)N(C[C@@]1(c3cc4nc(-c5cncc(C#N)c5)ccc4o3)NC(=O)NC1=O)C2 [Compound 1529] | 
30 | 0.79 |  |  | 112 | CCN1CCN(c2ccc3oc([C@]4(CN5Cc6ccc(OC)c(F)c6C5=O)NC(=O)NC4=O)cc3n2)C[C@H]1C [Compound 1293] | 
31 | 0.659 |  |  | ≥ 1000 | COc1ccc2c(c1)C(=O)N(C[C@@]1(c3ccc(-c4ccc(C5(C)NC(=O)NC5=O)cc4)cc3)NC(=O)NC1=O)C2 (some centres unmarked) [Compound 2205] | 
32 | 0.76 | 1990 |  |  | CCNC(=O)NCc1ccc2oc([C@]3(CN4Cc5ccc(OC)cc5C4=O)NC(=O)NC3=O)cc2c1 [Compound 2485] | 
33 | 0.49 | 760 |  |  | COc1ccc2c(c1)C(=O)N(C[C@@]1(c3cc4cc(C(=NO)N5CCOCC5)ccc4o3)NC(=O)NC1=O)C2 [Compound 2454] | 
34 | 0.881 |  |  | 524 | COc1ccc2c(c1)C(=O)N(C[C@@]1(c3cc4nc(N(C)c5ccncc5)ccc4o3)NC(=O)NC1=O)C2 [Compound 2138] | 
35 | 0.5 |  | 1340 |  | COc1ccc2c(c1F)C(=O)N(C[C@@]1(c3cc4nc(C)c(Br)cc4o3)NC(=O)NC1=O)C2 [Compound 1917] | 
36 | 1.88 |  |  | 617 | COc1ccc2c(c1)C(=O)N(C[C@@]1(c3ccc(-c4ccc5c(c4)CN(CC4(C)NC(=O)NC4=O)C5=O)cc3)NC(=O)NC1=O)C2 (some centres unmarked) [Compound 2174] | 
37 | 0.75 |  |  | 161 | COc1ccc2c(c1)C(=O)N(C[C@@]1(c3cc4nc(N5CCC(OC)(OC)CC5)ccc4o3)NC(=O)NC1=O)C2 [Compound 2109] | 
38 | 1.57 |  | 198 |  | COc1ccc2c(c1F)C(=O)N(C[C@@]1(c3cc4cncnc4o3)NC(=O)NC1=O)C2 [Compound 303] | 
39 | 0.41 |  |  | 313 | COc1ccc2c(c1F)C(=O)N(C[C@@]1(c3cc4c(Cl)nccc4o3)NC(=O)NC1=O)C2 [Compound 2216] | 
40 | 0.779 | 3660 |  |  | COc1ccc2c(c1)C(=O)N(C[C@@]1(c3cc4nc(-c5cncc(C#N)c5)ccc4o3)NC(=O)NC1=O)C2 [Compound 2471] | 
41 | 0.989 |  |  | 4030 | COc1ccc2c(c1)C(=O)N(C[C@@]1(c3cc4ccc(OC)cc4o3)NC(=O)NC1=O)C2 [Compound 2187] | 
42 | 1.12 |  | 671 |  | CCNC(=O)Nc1ccc2oc([C@]3(CN4Cc5ccc(OC)cc5C4=O)NC(=O)NC3=O)cc2n1 [Compound 1939] | 
43 | 0.28 |  | 998 |  | COc1ccc2c(c1)C(=O)N(C[C@@]1(c3cc4nc(-c5cccc(O)c5)ccc4o3)NC(=O)NC1=O)C2 [Compound 1902] | 
44 | 1.4 |  | > 10000 |  | COc1ccc2c(c1Br)C(=O)N(C[C@@]1(c3cc4ncccc4o3)NC(=O)NC1=O)C2 [Compound 1738] | 
45 | 0.249 |  |  | 220 | CCC1(c2ccc3oc([C@]4(CN5Cc6ccc(OC)cc6C5=O)NC(=O)NC4=O)cc3c2)NC(=O)NC1=O (some centres unmarked) [Compound 2208] | 
46 | 0.124 |  |  | 747 | COc1ccc2c(c1)C(=O)N(C[C@@]1(c3cc4cnc(C5=NCCN5)cc4o3)NC(=O)NC1=O)C2 [Compound 2273] | 
47 | 1.21 | 166 |  |  | COc1ccc2c(c1F)C(=O)N(C[C@@]1(c3cc4ccc5c(c4o3)CNC5=O)NC(=O)NC1=O)C2 [Compound 2498] | 
48 | 1.1 |  |  | 275 | CCN1CCN(c2ccc3oc([C@]4(CN5Cc6ccc(OC)c(F)c6C5=O)NC(=O)NC4=O)cc3n2)C[C@@H]1C [Compound 1294] | 

Row | SMILES | Ki ([1]; read-out: Ki) [nM] | IC50 [2, 3] [nM] | IC50 [2, 4] [nM] | IC50 [2, 5] [nM] | Ki ([1]; Ki) [nM]
49 | Cc1ccc2c(c1)C(=O)N(C[C@@]1(c3cc4ncccc4o3)NC(=O)NC1=O)C2 [Compound 1740] |  |  | > 10000 |  | 2.91
50 | COc1ccc2c(c1)C(=O)N(C[C@@]1(c3cc4ncc(C5=NCCN5)cc4o3)NC(=O)NC1=O)C2 [Compound 1942] |  |  | 3880 |  | 2.09
51 | COc1ccc2c(c1)C(=O)N(C[C@@]1(c3cc4nc(-c5cccs5)ccc4o3)NC(=O)NC1=O)C2 [Compound 2162] |  |  |  | 1410 | 0.125
52 | COc1ccc2c(c1)C(=O)N(C[C@@]1(c3cc4c(N5CCNCC5)nccc4o3)NC(=O)NC1=O)C2 [Compound 2279] |  |  |  | 234 | 2.55
53 | CCN1CCN(C(=NO)c2cnc3cc([C@]4(CN5Cc6ccc(OC)cc6C5=O)NC(=O)NC4=O)oc3c2)CC1 [Compound 2468] |  | 342 |  |  | 1.44
54 | COc1ccc2c(c1)C(=O)N(C[C@@]1(c3cc4ccc(C(=O)N5CCNC(=O)C5)cc4o3)NC(=O)NC1=O)C2 [Compound 2422] |  | 519 |  |  | 0.68
55 | COc1ccc2c(c1)C(=O)N(C[C@@]1(c3cc4c(C)nc(N)nc4o3)NC(=O)NC1=O)C2 [Compound 2299] |  | 284 |  |  | 0.762
